Test results published in patent US20160220489A1, “Intranasal Formulation for the Treatment of Cardiopulmonary Resuscitation (CPR), Cardiac Life Support (CLS), Anaphylaxis and/or Anaphylactoid Reactions” (G2B Pharma Inc., priority 2013, published 2016).
Where a name gives a salt, the structure may show the parent alone. Read-outs that look alike come from different tables or passages of the source.

Legend:
[1] = system: MUS; details: in vivo; cited from earlier work
[2] = Excerpt: Unless otherwise indicated, “primary particle diameter” can refer to the particle size distribution of a powder in its non-aggregated state. Primary particle diameter can be determined using a laser-diffraction particle size distribution analyzer. In some embodiments, the particle size analyzer can be Mastersizer 2000 manufactured by Malvern Instruments Limited.
Unless otherwise indicated, “median diameter” can refer to a diameter that divides particles into two groups of equal numbers: a group with greater diameters and a group with smaller diameters. A median diameter can be determined using a laser-diffraction particle size distribution analyzer and can correspond to 50% volume in a determined cumulative particle size distribution curve. In some embodiments, the particle size analyzer can be Mastersizer 2000 manufactured by Malvern Instruments Limited.
Data Handling • 1. Using Mastersizer 2000 software, combine particle size distribution data obtained for each dispersion pressure. • 2. If necessary, conduct particle size analysis using Wet Dispersion Method. • 3. Choose the optimum dispersion pressure.

[3] = cited from earlier work
[4] = nasal spray, loading dose 5 mg, normal human subjects; cited from earlier work
[5] = system: rats; details: intramuscular administration in rats; cited from earlier work
[6] = system: rabbits; details: inhalation in rabbits; cited from earlier work
[7] = Dry Dispersion Method, dispersion air pressure 0.5 bar
[8] = Dry Dispersion Method, dispersion air pressure 1.0 bar
[9] = Dry Dispersion Method, dispersion air pressure 2.0 bar
[10] = Dry Dispersion Method, dispersion air pressure 3.0 bar
[11] = Dry Dispersion Method, dispersion air pressure 4.0 bar

Compound: Cc1ccc(N(CC2=NCCN2)c2cccc(O)c2)cc1 [phentolamine]
- IVN-MUS LD50 [1]: 75 mg/kg

Compound: CNC[C@H](O)c1ccc(O)c(O)c1 [epinephrine]
- Volume under 10% [2, 7]: 17.8 μm
- Volume under 50% [2, 7]: 29.1 μm
- Volume under 90% [2, 7]: 45.9 μm
- Volume under 10% [2, 8]: 15.5 μm
- Volume under 50% [2, 8]: 27.2 μm
- Volume under 90% [2, 8]: 43.6 μm
- Volume under 10% [2, 9]: 4.8 μm
- Volume under 50% [2, 9]: 22.6 μm
- Volume under 90% [2, 9]: 41.8 μm
- Volume under 10% [2, 10]: 2.7 μm
- Volume under 50% [2, 10]: 18.8 μm
- Volume under 90% [2, 10]: 38.6 μm
- Volume under 10% [2, 11]: 2.4 μm
- Volume under 50% [2, 11]: 18.2 μm
- Volume under 90% [2, 11]: 38.3 μm
- Volume under 10% ([2]; Wet Dispersion Method): 18.1 μm
- Volume under 50% ([2]; Wet Dispersion Method): 31.2 μm
- Volume under 90% ([2]; Wet Dispersion Method): 50.7 μm
- greatest epinephrine plasma concentrations ([3]; intranasal 7.5 mg/kg/nostril of epinephrine after […] of phentolamine, dog): ~1,400 ng/mL
- Tmax (peak plasma concentration reached) [4]: 1.17 ± 0.283 h
- LD50 [5]: 3500 mg/kg
- LD50 [6]: 2.5 mg/kg

Compound: C[C@H](CCC(=O)NCCS(=O)(=O)O)[C@H]1CC[C@H]2[C@@H]3CC[C@@H]4C[C@H](O)CC[C@]4(C)[C@H]3C[C@H](O)[C@]12C [bile salts, taurodeoxycholic acid]
- nasal mucosal tissue damage ([3]; used as mucosal permeation enhancers (1% taurodeoxycholic acid)): severe nasal mucosal tissue damage
